In PubChem BioAssay (NCI):
Where “and” joins values, the source holds several entries; their conditions need not be identical. Identical values can stand only once.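 Each compound was tested at five concentrations against cells in 96-well plates for 48 hours. Here, GI50 denotes the concentration required for 50% inhibition of growth. TGI: total growth inhibition.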

What was measured:
Assay in all cases: NCI-60 cell line screen, 48 h
[1] = system: A549 NSCLC
[2] = system: MCF7 breast
[3] = system: MDA-MB-435
[4] = system: NCI-H226 lung
[5] = system: NCI-H460 lung
[6] = system: SW-620 colon
[7] = system: TK-10 renal
[8] = system: ACHN renal
[9] = system: EKVX NSCLC
[10] = system: NCI-H23 lung

Row | Compound | GI50 [1] [µM] | TGI [1] | GI50 [2] | TGI [2] | GI50 [3] | TGI [3] | GI50 [4] | TGI [4] [µM] | GI50 [5] | TGI [5] | GI50 [6] | TGI [6] | GI50 [7] | TGI [7] | TGI [8] | TGI [9] | TGI [10] | GI50 [8] | GI50 [9] | GI50 [10]
1 | COc1ccc2c(c1)C(=O)c1c-2c(N2CCN(C(=O)CCNCCNCCN)CC2)nc2ccccc12 | 9.51 | 29.4 µM | 5.11 µM | 21.6 µM | 6.86 µM | 30 µM | 22.6 µM | 78.4 | 2.4 µM | 5.42 µM | 1.86 µM | 3.65 µM | 18.4 µM | 42.1 µM | – | – | – | – | – | –
2 | CN(/N=C/c1ccccc1O)c1ccc2ccccc2n1 | – | 29.8 µM | – | 30.9 µM | – | > 100 µM | – | > 100 | – | 55 µM | – | > 100 µM | – | 44 µM | 66.6 µM | 54.9 µM | 58.4 µM | – | – | –
3 | O=C1/C(=C/c2ccc(F)cc2)CN(C(=O)C(Cl)Cl)C/C1=C\c1ccc(F)cc1 | 0.324 | 1.38 µM | 0.112 µM | 1.09 µM | 0.212 µM | 0.486 µM | 4.22 µM | 22.5 | 0.294 µM | 0.878 µM | 0.0365 µM | 0.119 µM | 0.67 µM | 1.96 µM | 0.603 µM | 1.46 µM | 0.774 µM | 0.24 µM | 0.393 µM | 0.259 µM
4 | O=C(Nc1cn[nH]c1-c1nc2ccc(CN3CCOCC3)cc2[nH]1)NC1CC1 | – | 9.76 µM and > 10 µM | 0.522 µM and 2.07 µM | 7.37 µM and > 10 µM | 1.43 µM and 6.77 µM | 5 µM and > 10 µM | 0.153 µM and 0.312 µM | – | 1.78 µM and 7.25 µM | 10.5 µM and > 10 µM | 0.573 µM and 1.32 µM | 11.5 µM and > 10 µM | 1.24 µM and 5.07 µM | 6 µM and > 10 µM | 17.7 µM and > 10 µM | 9.94 µM and > 10 µM | 5.16 µM and > 10 µM | 2.47 µM and 5.7 µM | 1.76 µM and > 10 µM | 1.45 µM and 7.06 µM
5 | C#Cc1cccc(NC(=O)c2cccc(NC(=O)CCl)c2)c1 | 21.6 | > 82.5 µM | 12.8 µM | > 82.5 µM | 32.3 µM | > 82.5 µM | 19.8 µM | 59.4 | 5.49 µM | 20 µM | 4.55 µM | 17 µM | 25.9 µM | > 82.5 µM | 42.9 µM | > 82.5 µM | 29.9 µM | 15.2 µM | 27.2 µM | 13.4 µM
6 | O=C(O)CN1C(=O)CN=C(c2ccccn2)c2cc(Cl)ccc21 | – | > 100 µM | – | > 100 µM | – | > 100 µM | – | > 100 | – | > 100 µM | – | > 100 µM | – | > 100 µM | > 100 µM | > 100 µM | – | – | – | –
7 | S=C1SCN(Cc2ccccc2)CN1Cc1ccccc1 | 15.4 | 37.6 µM | 2.19 µM | 15.1 µM | 2.35 µM | 7.16 µM | > 32.6 µM | > 50.8 | 31 µM | > 100 µM | 3.02 µM | 11.8 µM | 3.68 µM | 12.6 µM | 28.2 µM | > 57.8 µM | 42.9 µM | 14.8 µM | 21.2 µM | 12.1 µM
